What was measured:
[1] = target: T1, PPARγ (Homo sapiens, UniProt P37231); assay: cos-7 cells transfected with hPPARγ, PPRE×[…] TK-luciferase transactivation assay at […]; format: cell-based
T1 construct: gene PPARG; hPPARγ plasmid
T1 sequence (P37231 1-505): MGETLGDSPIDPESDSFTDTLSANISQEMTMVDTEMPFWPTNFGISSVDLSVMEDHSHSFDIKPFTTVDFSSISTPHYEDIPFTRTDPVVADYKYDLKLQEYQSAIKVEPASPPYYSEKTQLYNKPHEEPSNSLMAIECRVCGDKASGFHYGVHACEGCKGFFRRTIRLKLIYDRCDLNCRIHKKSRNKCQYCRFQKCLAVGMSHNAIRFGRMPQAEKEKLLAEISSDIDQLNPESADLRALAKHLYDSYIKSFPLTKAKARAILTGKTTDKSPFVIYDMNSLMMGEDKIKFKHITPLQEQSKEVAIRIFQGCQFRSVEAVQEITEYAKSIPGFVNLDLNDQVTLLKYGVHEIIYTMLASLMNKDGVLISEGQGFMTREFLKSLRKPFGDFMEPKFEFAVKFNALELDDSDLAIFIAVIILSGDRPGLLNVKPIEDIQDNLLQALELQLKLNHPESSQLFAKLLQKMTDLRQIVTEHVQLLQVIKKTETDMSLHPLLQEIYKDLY

[2] = target: T2, PPARγ (Homo sapiens, UniProt P37231); assay: LanthaScreen TR-FRET competitive binding assay (IC50 […]); supported by cell-based PPRE-luciferase assay (weak/partial agonism)
T2 construct: gene PPARG; PPARγ LBD
T2 sequence (P37231 231-505 limits assumed): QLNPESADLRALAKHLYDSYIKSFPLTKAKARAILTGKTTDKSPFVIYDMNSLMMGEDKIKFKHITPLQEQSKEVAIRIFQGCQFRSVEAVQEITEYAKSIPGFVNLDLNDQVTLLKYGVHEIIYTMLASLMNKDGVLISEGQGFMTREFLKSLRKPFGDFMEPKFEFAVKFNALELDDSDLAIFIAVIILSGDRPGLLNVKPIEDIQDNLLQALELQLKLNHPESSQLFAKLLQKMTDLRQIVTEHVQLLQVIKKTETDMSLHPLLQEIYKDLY

SMILES	cos-7 cells transfected with hPPARγ, PPRE×3 TK-luciferase transactivation assay [1]	Ki [2]
Clc1ccc(C(Cn2ccnc2)OCc2ccc(Sc3ccccc3)cc2)c(Cl)c1 (centres unmarked) [FN, fenticonazole]	podophyllotoxone exhibited weak PPARγ agonistic activity, similar to fenticonazole (FN), a PPARγ partial agonist	
COc1cc([C@@H]2c3cc4c(cc3C(=O)[C@H]3COC(=O)[C@H]23)OCO4)cc(OC)c1OC [podophyllotoxone]		9.86 µM

— article PMC11509912, “Identification of Novel PPARγ Partial Agonists Based on Virtual Screening Strategy: In Silico and In Vitro Experimental Validation” (Molecules, 2024)
